Measurements taken from patent US20090012152A1, “Use of Tetramic Acid Derivatives for Controlling Insects from the Genus of the Plane Lice (Sternorrhyncha)” (Bayer CropScience Aktiengesellschaft, priority 2005, published 2009).

Key:
Type in all cases: in vivo
Psylla piri = experiment: Example 6: pear trees treated against Psylla piri; settings: larvae on shoots, % a.i.: amitraz 0.05, I-9, I-2, I-1 0.096
Method: In three replications, in each case 4 about 4-year-old pear trees of the cultivar “Williams Christ” are treated against Psylla piri. Two applications are carried out at an interval of 11 days using a motor-operated barrow-mounted sprayer. Here, the active compounds Example (I-9) (240 SC), Example (I-2) (240 SC) and Example (I-1) (240 SC) are tested against the commercial standard Amitraz (200 EC) at the stated amounts. The application rate is 2000 l of water/ha.
Evaluation is carried out 3, 10 and 20 days after the last treatment by rating the kill of the larvae in percent on the shoots.

Pseudococcus spp. = experiment: Example 28: vines treated against Pseudococcus spp.; settings: 28 days after last of two treatments, on grapes, imidacloprid drip irrigation 560 g/ha, I-4 0.0168%, I-9 0.0144% spray
Method: In four replications, three in each case about 12-year-old vines of the cultivar “Auvemat” are treated against Pseudococcus spp. The commercial standard used is an application with imidacloprid at the recommended application rate, by drip irrigation. The active compounds are applied by spraying using a knapsack sprayer operated with pressurized air. Here, the active compounds Example (I-4) (240 SC) and Example (I-9) (240 SC) are applied in a tank mix with 0.1% a.i. of rapeseed oil methyl ester (500 EW), at the stated amount. Two applications are carried out at an interval of 15 days. The application rate is 1776 l of water/ha. Evaluation is carried out 28 days after the last treatment by rating the kill on grapes in percent.

Orthezia praelonga = experiment: Example 25: orange trees treated against Orthezia praelonga; settings: population on leaves, % a.i.: methidathion 0.05, I-4 0.0144, I-9 0.0144
Method: In two replications, two about 7-year-old orange trees of the cultivar “Pera Rio” are treated against Orthezia praelonga. Here, the active compounds Example (I-4) (240 SC) and Example (I-9) (240 SC), in a tank mix with 0.1% a.i. of Renex, are tested against the commercial standard Methidathion (400 EC), at the stated application rates. The application is carried out using a knapsack sprayer operated with pressurized air. Evaluation is carried out 6 and 16 days after the treatment by rating the kill of the population on the leaves.

Pemphigus bursarius = experiment: Example 3: chrysanthemums, lettuce root aphid; settings: on roots, spray on above-ground parts 96 g of a.i./ha
Method: In three replications, in each case 10 about 5-month-old chrysanthemums (Camilla) in 2 l-vessels are treated against the lettuce root aphid Pemphigus bursarius. Here, the active compound Example (I-4) (240 SC) is applied with a knapsack sprayer operated by pressurized air at the beginning of the infestation at the stated application rates to the above-ground parts of the plants. The soil is covered with a film. The application rate is 600 l of water/ha. 0.1% a.i. of rapeseed oil methyl ester (500 EW) is added to the spray liquor. Omethoate as drip irrigation in a concentration of 0.1% is used for comparison. The application is carried out two days later.
The kill in percent is determined on the roots. […]

Saissetia oleae = experiment: Example 13: orange trees treated against Saissetia oleae; settings: nymphs on leaves, g a.i./ha/m crown height: buprofezin 500, I-4 72, I-8 30
Method: In three replications, in each case two about 8-year-old orange trees are treated against Saissetia oleae. Here, the active compounds Example (I-4) (240 SC) and Example (I-8) (250 SC) in a tank mix with 0.2% a.i. of rapeseed oil methyl ester (500 EW) at the stated application rate are tested against the commercial standard buprofezin in a tank mix with 0.4% a.i. of Oliocin (800 EW) at the stated application rate. The application is carried out using a motor-operated knapsack sprayer. The application rate is 3000 l of water/ha. Two treatments are carried out, at an interval of 29 days.
Evaluation is carried out 24 and 44 days after the last treatment by rating the kill of the nymphs on the leaves.

Bemisia argentifolii = experiment: Example 36: aubergine plants (Ryoma) treated against Bemisia argentifolii; settings: nymphs on leaves, % a.i.: pymetrozine 0.0125, I-4 0.072, I-8 0.06
Method: In three replications, in each case four aubergine plants of the cultivar “Ryoma” are treated against Bemisia argentifolii. The application is carried out using a motor-operated knapsack sprayer. Here, the active compounds Example (I-4) and Example (I-8), in a tank mix with 0.2% a.i. of rapeseed oil methyl ester (500 EW), and the commercial standard pymetrozine (25 WP) are tested at the stated application rates. The application rate is 3200 l of water/ha.
Evaluation is carried out 13, 20 and 27 days after the treatment by rating the kill of the nymphs on the leaves.

Pseudococcus citri = experiment: Example 26: citrus trees treated against Pseudococcus citri; settings: 62 days after treatment, larvae on fruits, g a.i./ha/m crown height: Dursban 960, I-4 72
Method: In three replications, in plots of a size of about 20 m^2, citrus trees of the cultivar “Oro Nules” are treated against Pseudococcus citri. The application is carried out using a high-pressure sprayer. Here, the active compound Example (I-4) (240 SC), in a tank mix with 0.1% a.i. of rapeseed oil methyl ester (500 EW), is tested against the commercial standard Dursban (480 EC), at the stated application rates. The application rate is 2500 l of water/ha.
Evaluation is carried out 62 days after the treatment by rating the kill of the larvae on the fruits.

Viteus vitifolii = experiment: Example 4: vines treated against Viteus vitifolii; settings: 60 days after last of three treatments, on roots, imidacloprid drip irrigation 560 g/ha, I-4 0.0168%, I-9 0.0144% leaf spray
Method: In four replications, three in each case about 12-year-old vines of the cultivar “Auvemat” are treated against Viteus vitifolii. As commercial standard, imidacloprid is used at the recommended application rate by drip irrigation. The application of the active compounds is by spray application to the leaves using a knapsack operated with pressurized air. Here, the active compounds Example (I-4) (240 SC) and Example (I-9) (240 SC) are applied in a tank mix with 0.1% a.i. of rapeseed oil methyl ester (500 EW) at the stated amount. There are three applications on day 1, 2 and 15. The application rate is 1776 l of water/ha.
Evaluation is carried out 60 days after the last treatment by rating the kill on the roots in percent.

| Structure (SMILES) | Kill (%) 3 d (Psylla piri; 3 d after last of two treatments) | Kill (%) 10 d (Psylla piri; 10 d after last of two treatments) | Kill (%) 20 d (Psylla piri; 20 d after last of two treatments) | Kill (%) (Pseudococcus spp.) | Kill (%) 6 d (Orthezia praelonga; 6 d after treatment) | Kill (%) 16 d (Orthezia praelonga; 16 d after treatment) | Kill (%) 9 d (Pemphigus bursarius; 9 d) | Kill (%) (17 d) (Pemphigus bursarius; 17 d) | Kill (%) 24 d (Saissetia oleae; 24 d after last of two treatments) | Kill (%) 44 d (Saissetia oleae; 44 d after last of two treatments) | Kill (%) 13 d (Bemisia argentifolii; 13 d after treatment) | Kill (%) 20 d (Bemisia argentifolii; 20 d after treatment) | Kill (%) 27 d (Bemisia argentifolii; 27 d after treatment) | Kill (%) 62 days (Pseudococcus citri) | Kill (%) (Viteus vitifolii) |
| --- | --- | --- | --- | --- | --- | --- | --- | --- | --- | --- | --- | --- | --- | --- | --- |
| CCOC(=O)OC1=C(c2cc(C)ccc2Br)C(=O)NC12CCC(OC)CC2 (centres unmarked) [Example (I-2)] | 96.7% | 99% | 97.9% |  |  |  |  |  |  |  |  |  |  |  |  |
| CCOC(=O)OC1=C(c2cc(C)ccc2C)C(=O)NC12CCC(OC)CC2 (centres unmarked) [Example (I-4)] |  |  |  | 99% | 94% | 76% | 46.9 (9 d) % | 80.4 (17 d) % | 53.5% | 56.1% | 99.6% | 100% | 97% | 99% | 55% |
| O=[N+]([O-])NC1=NCCN1Cc1ccc(Cl)nc1 [imidacloprid, reference compound] |  |  |  | 100% |  |  |  |  |  |  |  |  |  |  | 26% |
